Results from the supplement of paper PMC13380429.

What was measured:
Conditions in all cases: 72 h
Caco-2 [1] = assay: relative viability EC50 (midpoint between 100% and the lowest measured viability); higher = less toxic
U2OS [2] = assay: as above
Calu-3 [3] = assay: as above
HepG2 [4] = assay: as above
Caco-2 [5] = assay: drug sensitivity score (DSS) for viability; higher = more toxic; extreme values may be limits of the assay
U2OS [6] = assay: as above
Calu-3 [7] = assay: as above
HepG2 [8] = assay: as above
Caco-2 [9] = assay: cell viability relative to DMSO; higher = less toxic
U2OS [10] = assay: as above
Calu-3 [11] = assay: as above
HepG2 [12] = assay: as above
Vero E6 [13] = assay: relative viability EC50 (midpoint between 100% and the lowest measured viability); higher = less toxic
Vero E6 [14] = assay: drug sensitivity score (DSS) for viability; higher = more toxic; extreme values may be limits of the assay
Vero E6 [15] = assay: cell viability relative to DMSO; higher = less toxic

Row | SMILES | relative viability EC50 (Caco-2 [1]) | relative viability EC50 (U2OS [2]) | relative viability EC50 (Calu-3 [3]) | relative viability EC50 (HepG2 [4]) | drug sensitivity score (Caco-2 [5]) | drug sensitivity score (U2OS [6]) | drug sensitivity score (Calu-3 [7]) | drug sensitivity score (HepG2 [8]) | cell viability (Caco-2 [9]; 1 nM) | cell viability (Caco-2 [9]; 10 nM) | cell viability (Caco-2 [9]; 100 nM) | cell viability (Caco-2 [9]; 1000 nM) | cell viability (Caco-2 [9]; 10000 nM) | cell viability (U2OS [10]; 1 nM) | cell viability (U2OS [10]; 10 nM) | cell viability (U2OS [10]; 100 nM) | cell viability (U2OS [10]; 1000 nM) | cell viability (U2OS [10]; 10000 nM) | cell viability (Calu-3 [11]; 1 nM) | cell viability (Calu-3 [11]; 10 nM) | cell viability (Calu-3 [11]; 100 nM) | cell viability (Calu-3 [11]; 1000 nM) | cell viability (Calu-3 [11]; 10000 nM) | cell viability (HepG2 [12]; 1 nM) | cell viability (HepG2 [12]; 10 nM) | cell viability (HepG2 [12]; 100 nM) | cell viability (HepG2 [12]; 1000 nM) | cell viability (HepG2 [12]; 10000 nM) | relative viability EC50 (Vero E6 [13]) | drug sensitivity score (Vero E6 [14]) | cell viability (Vero E6 [15]; 1 nM) | cell viability (Vero E6 [15]; 10 nM) | cell viability (Vero E6 [15]; 100 nM) | cell viability (Vero E6 [15]; 1000 nM) | cell viability (Vero E6 [15]; 10000 nM)
1 | Clc1cccc(-n2nnnc2NCc2ccccc2Oc2ccccn2)c1Cl | > 10 µM | > 10 µM | > 10 µM | > 10 µM | 0 | 0 | 0 | 0 | 104% | 97.1% | 104% | 96.2% | 96.1% | 101% | 98.9% | 100% | 102% | 98.9% | 92% | 93.5% | 88% | 89.1% | 102% | 104% | 98.4% | 104% | 104% | 92.1% | – | – | – | – | – | – | –
2 | Nc1nc(N)c2nc(-c3cccc(O)c3)cnc2n1 | > 10 µM | – | 1.4 µM | 2 µM | 1.6 | 3.2 | 6.6 | 3.9 | 93.5% | 105% | 99.1% | 84.5% | 86.1% | 95.6% | 99.4% | 99.7% | 95.5% | 51.7% | 99.9% | 97.5% | 103% | 80% | 34.1% | 98.1% | 99.7% | 102% | 92.5% | 49.6% | > 10 µM | 0.2 | 103% | 95.5% | 97.7% | 98.4% | 86.7%
3 | CCn1c(=O)/c(=C2\Sc3ccccc3N2C)s/c1=C\c1cccc[n+]1CC [MKT-077] | 2.43 µM | – | 2.64 µM | 3.23 µM | 3.8 | 3.5 | 5.2 | 2.6 | 92.5% | 93.7% | 100% | 95% | 44% | 97.8% | 98.4% | 96.2% | 94.3% | 51.4% | 96.4% | 99.9% | 101% | 94.8% | 20.8% | 104% | 92.8% | 109% | 100% | 49% | > 10 µM | 0.9 | 100% | 97.1% | 95.3% | 90.8% | 81%
4 | COc1ccc(CCC(=O)c2c(O)cc(O[C@@H]3O[C@H](CO)[C@@H](O)[C@H](O)[C@H]3O[C@@H]3O[C@@H](C)[C@H](O)[C@@H](O)[C@H]3O)cc2O)cc1O [Neohesperidin dihydrochalcone (Nhdc)] | > 10 µM | – | > 10 µM | > 10 µM | 0 | – | 0 | 0 | 102% | 104% | 95.2% | 94.2% | 106% | – | – | – | – | – | 108% | 92.8% | 102% | 99.6% | 109% | 101% | 110% | 108% | 107% | 92.1% | > 10 µM | 0 | 103% | 104% | 99.9% | 104% | 99.7%
5 | O=C(Nc1ccc(N2CCC(C(=O)N3CCOCC3)CC2)cc1)c1cnc(Oc2ccccc2)nc1 [TFC-007] | > 10 µM | – | > 10 µM | > 10 µM | 0 | – | 0 | 0 | 99.6% | 101% | 110% | 97.9% | 110% | – | – | – | – | – | 96% | 87.6% | 100% | 100% | 103% | 106% | 110% | 101% | 91.8% | 91.4% | > 10 µM | 0 | 90.1% | 101% | 90% | 95% | 110%
6 | OCc1ccc(-c2nn(Cc3ccccc3)c3ccccc23)o1 [YC-1] | > 10 µM | – | > 10 µM | 1.5 µM | 0 | 1.5 | 0 | 9.5 | 106% | 112% | 105% | 113% | 97.4% | 104% | 105% | 102% | 101% | 65.6% | 106% | 93.2% | 109% | 104% | 115% | 104% | 112% | 102% | 73.5% | 0.4% | > 10 µM | 0 | 103% | 103% | 104% | 104% | 98.1%
